# Assay results published in PubChem BioAssay (NCI).
#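 How tested: cells in 96-well plates exposed to compound for 48 hours at five concentrations. Here, GI50 denotes the concentration required for 50% inhibition of growth. TGI marks complete inhibition of growth.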
# Key:
# Assay in all cases: NCI tumour cell line growth inhibition, 48 h
# SF-295 CNS = system: SF-295 CNS
# HS 578T breast = system: HS 578T breast
# PC-3 prostate = system: PC-3 prostate
# NCI-H226 lung = system: NCI-H226 lung
# HOP-92 NSCLC = system: HOP-92 NSCLC
# U251 CNS = system: U251 CNS
# SK-OV-3 ovarian = system: SK-OV-3 ovarian
# CAKI-1 renal = system: CAKI-1 renal
# 786-0 renal = system: 786-0 renal
# A498 renal = system: A498 renal
Structure (SMILES),GI50 (SF-295 CNS) [µM],TGI (SF-295 CNS) [µM],GI50 (HS 578T breast) [µM],TGI (HS 578T breast) [µM],GI50 (PC-3 prostate) [µM],TGI (PC-3 prostate) [µM],GI50 (NCI-H226 lung) [µM],TGI (NCI-H226 lung) [µM],GI50 (HOP-92 NSCLC) [µM],TGI (HOP-92 NSCLC) [µM],GI50 (U251 CNS) [µM],TGI (U251 CNS) [µM],GI50 (SK-OV-3 ovarian) [µM],TGI (SK-OV-3 ovarian) [µM],GI50 (CAKI-1 renal) [µM],TGI (CAKI-1 renal) [µM],GI50 (786-0 renal) [µM],TGI (786-0 renal) [µM],GI50 (A498 renal) [µM],TGI (A498 renal) [µM]
O=C(c1ccccc1)c1nc2ccc(C(F)(F)F)cc2nc1N1CCN(c2ccccc2)CC1,42.8,> 100,65,> 100,47.1,> 100,18.2,46.9,49.3,> 100,60.9,> 100,> 100,> 100,26.2,74.7,30.7,76.1,27.9,68.6
COc1cc2c(c(OC)c1OC)-c1c(c3ccc([N+](=O)[O-])cc3c(=O)n1CCCN)C2=O,1.86,7.82,11.1,31.4,7.68,15,9.38,19.4,7.21,15.8,0.92,1.75,12.8,25.1,0.895,10.9,0.799,1.51,8.22,18
CC(=O)OCCCC#CC#Cc1cccc(=O)o1,17.8,32.7,25.8,56.7,18.4,44.4,20.8,52.8,19.8,37.8,23.9,54.3,33.8,> 100,13.6,28.3,19,35.1,23.9,39.4
O=C(O)c1cn(C2CC2)c2cc(N3CCN(Cc4c(O)ccc5ccccc45)CC3)c(F)cc2c1=O,8.22,> 100,2.74,17.2,3.75,> 100,5.45,> 100,2.46,8.88,19,> 100,11.7,> 100,3.29,> 100,2.58,7.05,1.48,4.47
N#CC1=C(N)Oc2c(sc3c(Br)cccc23)C1c1ccc(Cl)cc1 (stereo not given),0.276,0.869,0.855,18.1,0.56,5.55,1.49,10.4,2,7.29,0.563,2.36,0.464,11.6,0.477,16.3,0.663,2.71,0.47,11
C=C1C(=O)O[C@H]2[C@H]1CC/C(CNC(=O)/C=C/c1ccccc1F)=C\CC[C@@]1(C)O[C@@H]21,7.16,20.9,2.42,16.9,2,4.29,2.42,6.94,1.62,4.13,1.86,3.75,13.1,28.3,1.3,2.67,1.59,3.71,2.6,7.49
Cc1ccccc1C(C(=O)NC1CCCCC1)N(C(=O)CNc1ccc(C#N)cc1)c1cccc(F)c1 (stereo not given),13.8,44.6,7.05,67.4,20.3,> 100,14.1,> 94.5,8.65,28.7,5.28,> 100,12.9,52.8,14.7,> 62.6,17.3,> 67.9,24,74.4
